From PMC7827406, “Structure–Activity Relationship (SAR) Study of Spautin-1 to Entail the Discovery of Novel NEK4 Inhibitors” (International Journal of Molecular Sciences, 2021) come the findings set out here.

What all share (test): biochemical
What all share (parameters): Eurofins KinaseProfiler full panel at Km ATP, residual kinase activity (%) relative to DMSO

Test [1] addresses T1, Ron(h) (Homo sapiens, UniProt Q04912).
T1 construct: gene MST1R
The procedure, abridged:
(§1)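 Compounds screened at 10 µM in radiometric kinase activity assays at Km ATP, reported as remaining kinase activity (%). A KINOMEscan competition-binding screen at 10 µM measured DNA-tagged kinase retained on immobilized active-site ligand by qPCR.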

Test [2] addresses T2, NEK9(h) (Homo sapiens, UniProt Q8TD19).
T2 sequence (Q8TD19 1-979): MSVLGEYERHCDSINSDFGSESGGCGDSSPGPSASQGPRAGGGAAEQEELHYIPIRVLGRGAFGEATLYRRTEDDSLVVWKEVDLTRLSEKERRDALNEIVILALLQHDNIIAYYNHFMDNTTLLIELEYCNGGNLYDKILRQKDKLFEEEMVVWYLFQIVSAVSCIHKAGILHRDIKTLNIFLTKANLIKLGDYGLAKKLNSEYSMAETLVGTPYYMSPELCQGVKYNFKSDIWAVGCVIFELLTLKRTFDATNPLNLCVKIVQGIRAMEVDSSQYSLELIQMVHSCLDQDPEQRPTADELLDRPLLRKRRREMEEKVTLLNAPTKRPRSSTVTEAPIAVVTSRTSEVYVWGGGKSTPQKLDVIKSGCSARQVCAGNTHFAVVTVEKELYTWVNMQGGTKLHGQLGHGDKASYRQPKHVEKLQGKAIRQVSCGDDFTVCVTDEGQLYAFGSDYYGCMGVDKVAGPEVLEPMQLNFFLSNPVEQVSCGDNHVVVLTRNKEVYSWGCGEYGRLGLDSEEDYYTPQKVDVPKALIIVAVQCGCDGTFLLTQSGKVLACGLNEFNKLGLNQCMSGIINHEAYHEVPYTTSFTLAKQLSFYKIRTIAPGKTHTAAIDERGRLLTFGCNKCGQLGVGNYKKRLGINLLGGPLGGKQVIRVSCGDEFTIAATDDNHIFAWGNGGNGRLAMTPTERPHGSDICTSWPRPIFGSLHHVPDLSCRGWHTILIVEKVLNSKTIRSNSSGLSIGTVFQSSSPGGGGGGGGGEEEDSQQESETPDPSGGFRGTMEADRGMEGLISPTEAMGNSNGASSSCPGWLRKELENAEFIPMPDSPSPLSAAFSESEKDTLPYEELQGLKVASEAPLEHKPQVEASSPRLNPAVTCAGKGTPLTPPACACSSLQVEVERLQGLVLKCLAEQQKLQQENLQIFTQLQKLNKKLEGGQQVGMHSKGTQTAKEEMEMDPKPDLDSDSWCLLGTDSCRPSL
The procedure, abridged:
as §1

Test [3] concerns the target T3, CK2α2(h) (Homo sapiens, UniProt P19784).
T3 construct: gene CSNK2A2
The procedure, abridged: as §1

Test [4] concerns the target Blk(h) (Homo sapiens, UniProt P51451). In a few lines:
as §1

The target in test [5] is T4, LATS2(h) (Homo sapiens, UniProt Q9NRM7).
T4 sequence (Q9NRM7 1-1088): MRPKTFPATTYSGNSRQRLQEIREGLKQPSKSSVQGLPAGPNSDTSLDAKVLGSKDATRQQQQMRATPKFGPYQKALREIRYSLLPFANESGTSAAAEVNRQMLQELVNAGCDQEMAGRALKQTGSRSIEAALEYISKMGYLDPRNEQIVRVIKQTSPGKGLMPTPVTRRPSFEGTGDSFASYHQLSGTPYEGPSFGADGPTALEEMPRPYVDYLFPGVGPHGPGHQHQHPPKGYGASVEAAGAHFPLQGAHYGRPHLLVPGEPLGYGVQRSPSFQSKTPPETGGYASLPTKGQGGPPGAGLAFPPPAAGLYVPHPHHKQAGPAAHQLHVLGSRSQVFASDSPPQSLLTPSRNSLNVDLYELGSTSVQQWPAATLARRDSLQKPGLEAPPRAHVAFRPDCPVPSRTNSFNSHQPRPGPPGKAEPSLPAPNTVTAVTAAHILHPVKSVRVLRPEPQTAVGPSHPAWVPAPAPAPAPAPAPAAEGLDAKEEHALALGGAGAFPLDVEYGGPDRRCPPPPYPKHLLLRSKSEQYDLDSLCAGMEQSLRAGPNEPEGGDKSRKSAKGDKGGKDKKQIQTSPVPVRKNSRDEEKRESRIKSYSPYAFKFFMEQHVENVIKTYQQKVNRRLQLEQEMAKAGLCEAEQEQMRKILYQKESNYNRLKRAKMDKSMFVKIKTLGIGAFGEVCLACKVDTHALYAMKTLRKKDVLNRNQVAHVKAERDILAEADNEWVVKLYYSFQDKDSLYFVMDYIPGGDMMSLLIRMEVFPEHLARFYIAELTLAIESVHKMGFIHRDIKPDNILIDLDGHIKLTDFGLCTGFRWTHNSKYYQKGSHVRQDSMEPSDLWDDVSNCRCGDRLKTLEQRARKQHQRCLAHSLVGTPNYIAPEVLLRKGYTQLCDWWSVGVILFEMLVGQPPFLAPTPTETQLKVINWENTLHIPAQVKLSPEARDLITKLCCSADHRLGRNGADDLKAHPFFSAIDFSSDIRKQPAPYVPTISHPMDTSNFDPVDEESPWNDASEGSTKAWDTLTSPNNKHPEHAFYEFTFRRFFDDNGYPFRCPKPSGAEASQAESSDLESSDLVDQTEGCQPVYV
In a few lines:
as §1

For test [6], the target named is CDKL1(h) (Homo sapiens, UniProt Q00532). The procedure, abridged:
as §1

[7] abbreviates: read-out: Residual activity (%) Spautin-1 5aa.
[8] abbreviates: read-out: Residual activity (%) 5as.
[9] abbreviates: read-out: Residual activity (%) 5at.
Setting [10] is: read-out: Residual activity (%) 5ay.

Where two headings read alike, the source gives them in different places.

T1 sequence (Q04912 whole entry): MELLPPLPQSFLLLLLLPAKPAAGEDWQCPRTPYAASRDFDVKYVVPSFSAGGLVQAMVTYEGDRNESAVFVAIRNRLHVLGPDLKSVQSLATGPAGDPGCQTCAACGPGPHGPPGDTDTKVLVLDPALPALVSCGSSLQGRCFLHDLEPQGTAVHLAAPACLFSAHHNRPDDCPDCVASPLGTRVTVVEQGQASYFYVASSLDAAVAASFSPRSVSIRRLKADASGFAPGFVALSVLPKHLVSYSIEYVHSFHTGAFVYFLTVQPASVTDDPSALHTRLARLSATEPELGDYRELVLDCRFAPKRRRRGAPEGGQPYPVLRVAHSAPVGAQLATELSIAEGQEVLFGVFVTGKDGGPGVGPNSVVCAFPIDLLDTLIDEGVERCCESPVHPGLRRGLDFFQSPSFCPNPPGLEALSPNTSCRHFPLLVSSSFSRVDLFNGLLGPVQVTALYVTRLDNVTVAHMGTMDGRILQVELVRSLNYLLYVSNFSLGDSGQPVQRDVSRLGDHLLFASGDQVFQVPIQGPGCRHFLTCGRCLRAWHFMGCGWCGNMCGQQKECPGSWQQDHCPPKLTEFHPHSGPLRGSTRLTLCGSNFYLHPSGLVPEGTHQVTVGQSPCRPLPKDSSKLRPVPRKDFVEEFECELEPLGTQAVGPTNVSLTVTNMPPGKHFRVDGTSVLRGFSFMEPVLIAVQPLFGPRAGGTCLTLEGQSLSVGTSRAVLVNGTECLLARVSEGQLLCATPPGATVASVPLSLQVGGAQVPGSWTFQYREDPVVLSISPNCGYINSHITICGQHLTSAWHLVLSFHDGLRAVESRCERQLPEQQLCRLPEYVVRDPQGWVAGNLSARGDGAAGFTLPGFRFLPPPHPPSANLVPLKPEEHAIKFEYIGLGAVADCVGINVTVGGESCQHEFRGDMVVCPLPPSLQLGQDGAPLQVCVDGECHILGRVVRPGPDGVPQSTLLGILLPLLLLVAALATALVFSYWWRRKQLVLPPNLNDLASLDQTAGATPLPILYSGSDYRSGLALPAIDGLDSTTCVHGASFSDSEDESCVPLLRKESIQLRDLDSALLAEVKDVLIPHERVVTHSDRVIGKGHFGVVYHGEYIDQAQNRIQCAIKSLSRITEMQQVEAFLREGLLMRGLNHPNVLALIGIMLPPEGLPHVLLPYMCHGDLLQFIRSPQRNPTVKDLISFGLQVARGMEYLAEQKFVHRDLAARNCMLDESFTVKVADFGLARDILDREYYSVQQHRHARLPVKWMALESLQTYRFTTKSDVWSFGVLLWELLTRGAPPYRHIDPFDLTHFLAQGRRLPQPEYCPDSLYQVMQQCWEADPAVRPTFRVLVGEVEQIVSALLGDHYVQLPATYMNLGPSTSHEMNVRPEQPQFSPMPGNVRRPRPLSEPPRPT
Blk(h), sequence (P51451 whole entry): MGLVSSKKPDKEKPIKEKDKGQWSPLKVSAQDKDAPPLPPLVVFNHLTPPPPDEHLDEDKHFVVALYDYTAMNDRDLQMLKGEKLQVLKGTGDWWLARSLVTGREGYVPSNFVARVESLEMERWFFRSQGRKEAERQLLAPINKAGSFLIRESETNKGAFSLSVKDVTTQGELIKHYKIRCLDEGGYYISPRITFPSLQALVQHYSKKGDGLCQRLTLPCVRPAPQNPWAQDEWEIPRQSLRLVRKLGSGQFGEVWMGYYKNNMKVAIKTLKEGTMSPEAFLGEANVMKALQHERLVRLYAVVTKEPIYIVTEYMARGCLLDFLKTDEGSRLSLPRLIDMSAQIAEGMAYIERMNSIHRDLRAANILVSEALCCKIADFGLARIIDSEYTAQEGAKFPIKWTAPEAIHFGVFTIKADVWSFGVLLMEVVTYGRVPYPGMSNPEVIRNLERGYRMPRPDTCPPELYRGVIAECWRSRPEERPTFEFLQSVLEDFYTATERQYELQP
CDKL1(h), sequence (Q00532 whole entry): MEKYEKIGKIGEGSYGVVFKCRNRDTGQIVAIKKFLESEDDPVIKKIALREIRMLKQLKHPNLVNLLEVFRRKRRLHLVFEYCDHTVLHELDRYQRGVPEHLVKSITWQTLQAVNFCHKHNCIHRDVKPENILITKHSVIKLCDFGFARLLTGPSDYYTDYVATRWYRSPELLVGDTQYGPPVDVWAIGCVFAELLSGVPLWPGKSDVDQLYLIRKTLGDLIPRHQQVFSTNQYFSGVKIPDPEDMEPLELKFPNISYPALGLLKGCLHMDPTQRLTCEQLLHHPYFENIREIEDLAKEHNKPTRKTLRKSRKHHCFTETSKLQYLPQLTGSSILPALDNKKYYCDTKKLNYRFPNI
T3 sequence (P19784 whole entry): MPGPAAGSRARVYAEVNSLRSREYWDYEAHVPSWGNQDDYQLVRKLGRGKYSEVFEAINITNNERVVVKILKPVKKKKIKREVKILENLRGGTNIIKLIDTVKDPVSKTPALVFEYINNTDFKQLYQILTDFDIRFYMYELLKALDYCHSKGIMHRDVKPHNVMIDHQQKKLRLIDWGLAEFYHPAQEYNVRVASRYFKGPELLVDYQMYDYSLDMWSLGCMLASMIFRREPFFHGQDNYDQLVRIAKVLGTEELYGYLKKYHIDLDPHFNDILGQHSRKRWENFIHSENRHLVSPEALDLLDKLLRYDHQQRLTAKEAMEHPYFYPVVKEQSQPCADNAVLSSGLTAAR

Consider `Fc1ccc(CNc2ncnc3ccc(F)cc23)cc1` [5aa, 6-Fluoro-N-(4-fluorobenzyl)-4-Quinazolinamine], for which the remaining activity at 10 µM is 98% in test [1] (setting [7]); 98% in test [2] (setting [7]); 101% in test [3] (setting [7]); 97% in test [4] (setting [7]); 94% in test [5] (setting [7]); 94% in test [6] (setting [7]).

Turning to `Fc1ccc(CCNc2ncnc3ccc(F)cc23)cc1` [5as, 6-Fluoro-N-[2-(4-Fluorophenyl)Ethyl]-4-Quinazolinamine], the remaining activity at 10 µM in test [1] (setting [8]) turned out to be 109%; in test [2] (setting [8]), 103%; in test [3] (setting [8]) it was 95%; in test [4] (setting [8]) it was 100%; in test [5] (setting [8]), 74%; in test [6] (setting [8]), 111%.

Consider `Fc1ccc2ncnc(NCCc3ccc(Cl)cc3)c2c1` [5at, N-[2-(4-Chlorophenyl)Ethyl]-6-Fluoro-4-Quinazolinamine], for which the remaining activity at 10 µM in test [1] (setting [9]) came to 101%; in test [2] (setting [9]) it was 92%; in test [3] (setting [9]) it was 86%; in test [4] (setting [9]) it was 91%; in test [5] (setting [9]), 75%; in test [6] (setting [9]) it was 111%.

As for `COc1ccc2ncnc(Nc3cccc(F)c3)c2c1` [5ay, N-(3-Fluorophenyl)-6-Methoxy-4-Quinazolinamine], the remaining activity at 10 µM in test [1] (setting [10]) worked out at 88%; in test [2] (setting [10]), 92%; in test [3] (setting [10]), 83%; in test [4] (setting [10]), 85%; in test [5] (setting [10]) it was 72%; in test [6] (setting [10]) it was 119%.
